Assay results taken from US20250075218A1, “HIF1A OR GLUT1 INHIBITION IN INFLAMMATORY SKIN DISEASES” (New York University, priority 2023, published 2025).
Several values for one entry are separate records, joined by “and”; a condition that tells them apart may be missing. Equal entries are not always repeated. Entries after “also recorded” stand apart in the source; their conditions may differ. Where two headings read alike, the source gives them in different places.

Legend:
[1] = system: uninflamed skin; conditions: for epidermal HIF1α levels (K14+HIF1α+ cells): topical on uninflamed skin for six days
Experimental: To examine if HIF1α is sufficient to promote epithelial pathology in the absence of inflammation, a HIF1α activator, FG-4592, was used (Wu et al., 2016). […] Animal drug treatments. EdU pulse: Mice were injected intraperitoneally with EdU (50 μg/g) (Thermo Scientific) three hours prior to sacrifice. PIM HCl: Pimonidazole Hydrochloride (PIM HCl, hypoxyprobe) was injected intraperitoneally into mice (20 mg/kg) two hours prior to sacrifice. BAY 87-2243: BAY 87-2243 (2 mg/ml, Selleck Chemicals) was first dissolved in DMSO and then diluted in a water-based gel. This gel was topically applied to dorsal skin daily starting two days prior to imiquimod application and continuing in parallel with imiquimod application until analysis. Sodium Oxamate: Sodium oxamate (70 mg/ml, Cayman Chemicals) was first dissolved in H2O and then diluted in a water-based gel. This gel was topically applied to dorsal skin daily starting either on the first or fourth day of imiquimod application and continuing in parallel with imiquimod application until analysis. Syrosingopine: Syrosingopine (10 mg/ml, Cayman Chemicals) was first dissolved in DMSO and then diluted in a water-based gel. […] Sections were blocked and stained with primary and secondary fluorescence-conjugated antibody. […] Pimonidazole Hydrochloride (PIM HCl) was detected by pretreating slides with a mouse-on-mouse immunodetection kit (Vector Laboratories) and then staining with biotin-anti-PIM adduct antibodies as per the manufacturer's guidelines (Hypoxyprobe). Data were analyzed using ImageJ software. Epidermal thickness was quantified by measuring K14^+ thickness with an in-house ImageJ macro. Thickness of keratin 6 (K6) and glucose transporter 1 (Glut1) layer was quantified by measuring K6^+K14^+ and Glut1^+K14^+ thickness with an ImageJ macro. The number of CD3 and EdU positive cells was quantified using ImageJ software and normalized per dermis area and length of epidermis, respectively.

[2] = system: epidermal HIF1α; assay: Immunofluorescence of PsO lesions before and after etanercept; type: in vivo, human; conditions: n=10
Experimental: (§1) When compared to contralateral non-lesional skin, the PsO lesion was enriched for HIF1A, IL17RA, and IL17RC (FIGS. 3B and 8H). […] As a complementary analysis, HIF1α protein expression was measured in a cohort of 10 patients treated with etanercept (anti-TNFα) that achieved response (PASI 75 or greater) at 12 weeks (Table 2) (Stinco et al., 2019). […] Collectively, these analyses make a compelling argument for exuberant IL-17A signaling and subsequent HIF1α induction in fueling a pathological epithelial state that is resolved following successful biologic therapy, irrespective of cytokine target.
Human skin immunofluorescence and image analyses. Four-micron paraffin-embedded sections were stained either with hematoxylin and eosin or with Akoya Biosciences® Opal™ multiplex automation kit on a Leica BondRX® autostainer, according to manufacturers' instructions. Semi-automated image acquisition was performed on a Vectra® Polaris multispectral imaging system. After whole slide scanning at 20× the tissue was manually outlined to select fields for spectral unmixing using InForm® version 2.4.11 software from Akoya Biosciences.

[3] = system: PsO patients; assay: Clinical metrics of PsO patients over course of etanercept (anti-TNFα) therapy; type: in vivo, human; design: BSA: unit not given here
Experimental: as §1

[4] = system: imiquimod (IMQ) PsO murine model; assay: Imiquimod (IMQ) PsO murine model with topical inhibitor treatment; type: in vivo, mouse; conditions: for cutaneous Type 17 immunity: interventional treatment after establishment of inflammation at day 3 of IMQ; for Type 17 cytokines (Il17a, Il22, Il23a, Il1b, Tnfa): topical during the course of IMQ treatment; for cutaneous T cell numbers (dermal CD3+ cells) / epithelial (epidermal) thickness: topical from first day, during the course of IMQ treatment
Experimental: Murine models of psoriatic inflammation. Topical imiquimod application: For imiquimod studies, seven- to eight-week-old mice in telogen (resting phase of hair cycle) were anesthetized with isoflurane prior to hair removal and imiquimod treatment on dorsal skin. 50 mg of imiquimod cream (5%, Perrigo) was applied to shaved dorsal skin, and application was repeated up to six days as previously described (van der Fits et al., 2009). Intradermal rmIL-23 injection: For recombinant murine (rm) IL-23 studies, the ear pinnae in 8-week-old mice were intradermally injected with either rmIL-23 (500 ng in 20 μl of PBS, carrier-free, PeproTech) or PBS control for five days. Animal drug treatments. […] Murine skin immunofluorescence and image analyses. […] Nuclei were stained with DAPI. […] Data were analyzed using ImageJ software.

[5] = system: PsO lesional human skin; assay: Ex vivo culture of human PsO lesional biopsies, bulk RNA-seq
Source text: Therefore, an ex vivo “trial in a dish” system was devised to test the effects of HIF1α inhibition on PsO lesional human skin. Lesional biopsies were obtained from 5 PsO patients that were either therapy-naïve or non-responsive to biologic therapy (Table 3). […] Surgical foreskin discards were used as healthy control skin and subject to the same treatment regimens.
Human skin culture. 4 mm full-thickness punch biopsies from lesional psoriatic skin and healthy skin (foreskin) were cut into […], secured with matrigel in 24-well plate and cultured within a maximum of 24-hours after removal from the patient. Each biopsy piece was subjected to different treatment conditions: (1) DMSO vehicle, (2) 10 μM of BAY87-2243, and (3) 500 nM of calcipotriol and 5 μM of betamethasone dipropionate (standard of care). The tissue was cultured in 24-well plates in 500 μl of Dulbecco's Modified Eagle Medium (DMEM) with 10% Fetal Bovine Serum (FBS). After 24 hours of culture, tissues were flash-frozen in liquid nitrogen and stored in −80° C. until RNA extraction. Total RNA was extracted using the RNeasy Fibrous Tissue Mini Kit (Qiagen) per manufacturer's instructions. Libraries were generated with Ribo-Zero Plus rRNA Depletion Kit (Illumina) and sequenced on Novaseq 6000 system with 100-bp paired-end reads.
Low-input bulk-RNA sequencing of human and murine skin. For human studies, skin biopsies were flash-frozen in liquid nitrogen following culture and treatment modalities. […] Libraries were generated with Ribo-Zero Plus rRNA Depletion Kit (Illumina) and sequenced on Novaseq 6000 system with 100-bp paired-end reads. […] Reads were trimmed for adapter sequences using trimmomatic (version 0.36) in paired end mode with the minimal read length option set to 35 base pairs, trailing set to 5, and the sliding window set to 4:15. Sequencing reads were aligned to the mouse genome (mm10/GRCm38) and human genome (hg38) using the splice-aware STAR aligner (Dobin et al, 2013). […]

[6] = system: IMQ-treated murine skin; assay: Lactate Secretion Assay of ex vivo murine back skin culture; type: cell-based, mouse; conditions: 2-DG 50 mM, 24 hours culture
Experimental: To examine lactate levels in inflamed skin, full thickness biopsies of IMQ-treated or control skin were cultured for 24 hours, in the presence or absence of glycolysis inhibitor 2DG, and measured lactate in the culture supernatant (FIG. 13A). […] 4 mm full-thickness punch biopsies from IMQ-treated or healthy murine skin were secured with matrigel in 12-well plate and cultured for 24 hours in 400 μl of Dulbecco's Modified Eagle Medium (DMEM) with 10% Fetal Bovine Serum (FBS). For inhibitor studies, cultures were treated with 2-DG (50 mM). At the end of 24 hours, supernatant was collected, centrifuged at 1000 g to pellet debris, and stored in −80C until further use. Lactate was measured using the colorimetric L-Lactate Assay Kit (Abcam).

[7] = Week 2 of etanercept, one line per individual patient
[8] = Week 6 of etanercept, one line per individual patient
[9] = Week 12 of etanercept, one line per individual patient
[10] = BAY 87-2243 topical concurrent with IMQ, vs vehicle
[11] = treatment begins on day 3 of IMQ application, up to day 6, vs vehicle
[12] = vs vehicle, listed as MCT1/MCT4 inhibitor

Molecule: Cc1nc(C(=O)NCC(=O)O)c(O)c2ccc(Oc3ccccc3)cc12 [FG-4592]
- epidermal HIF1α levels (K14+HIF1α+ cells) [1]: effectively heightened
- epidermal HIF1α levels (K14+HIF1α+ cells) ([1]; listed as FG-4985): increased

Molecule: etanercept
- cutaneous Type 17 cells ([2]; etanercept responsive patients): reduction
- epidermal hyperplasia (epidermal thickness) ([2]; etanercept-responsive patients, post-treated vs pre-treated lesional skin): reduced epidermal hyperplasia
- expression of (nuclear) epidermal HIF1α ([2]; post-treated vs pre-treated lesional PsO epidermis, responsive patients): lower expression; also recorded: reduced
- BSA [3, 7]: 9 and 22 and 15 (2×) and 11 and 12 and 76 and 29 and 19 and 20
- Static Physician's Global Assessment (SPGA) [3, 7]: 3 (6×) and 2 (2×) and 4 (2×)
- PASI ([3]; Week 2 of etanercept, one line per individual patient (Patient 28-40)): 9.5 and 3.9 and 8.1 and 9.4 and 14.3 and 31.5 and 17.4 and 18.8 and 10.7 and 10.8
- BSA [3, 8]: 8 (2×) and 4 and 15 and 11 and 39 and 25 and 13 and 18 and 16
- PASI [3, 8]: 7.4 and 2.7 and 4.8 and 8.4 and 4.4 and 15 and 6.6 and 12.3 and 8.2 and 4.5
- Static Physician's Global Assessment (SPGA) [3, 8]: 3 (3×) and 1 and 2 (6×)
- BSA [3, 9]: 6 and 3 (2×) and 10 and 15 and 27 and 1 and 7 and 18 and 8
- PASI [3, 9]: 4.5 (2×) and 2.7 and 2.4 and 11.6 and 3.2 and 12 and 0 and 2 and 8.4
- Static Physician's Global Assessment (SPGA) [3, 9]: 2 (4×) and 1 (4×) and 3 (2×)
- PASI response achieved ([3]; cohort of 10 patients, at 12 weeks): ≥ 75

Molecule: Cc1cc(-c2nc(-c3ccc(OC(F)(F)F)cc3)no2)nn1Cc1ccnc(N2CCN(C3CC3)CC2)c1 [BAY 87-2243]
- epidermal thickness ([1]; mouse, in vivo): not altered
- epidermal thickness ([4]; BAY 87-2243 2 mg/ml gel topical daily from two days prior to and concurrent with IMQ, vs vehicle): diminished; also recorded: significantly reduced
- dermal T cells (CD3+) ([4]; BAY 87-2243 topical concurrent with IMQ, vs control): reduction; also recorded: significantly lower numbers
- inflammatory Keratin 6 expression (K6 thickness) [4, 10]: significantly reduced
- proliferation (Ki67) [4, 10]: significantly reduced
- genes associated with glycolytic metabolism, STAT3 activation and epithelial development/differentiation ([5]; PsO lesional skin, 10 μM, 24 hours, vs vehicle): strikingly downregulated
- number of differentially expressed genes (DEGs) compared to vehicle control ([5]; PsO lesional skin, 24 hours in culture, FDR<0.05, 10 μM BAY87-2243, SoC 500 nM calcipotriol and 5 μM betamethasone dipropionate): 2921
- expression of lactate transporters SLC16A1 (MCT1) and SLC16A3 (MCT4) ([5]; human PsO lesional skin culture, 24 hours): significantly reduced

Molecule: NC(=O)C(=O)[O-].[Na+] [sodium oxamate]
- cutaneous Type 17 immunity [4]: decrease
- Type 17 cytokines (Il17a, Il22, Il23a, Il1b, Tnfa) [4]: sufficient to limit
- cutaneous T cell numbers (dermal CD3+ cells) ([4]; vs vehicle): diminished; also recorded: sufficient to limit
- epithelial (epidermal) thickness ([4]; vs vehicle): diminished; also recorded: sufficient to limit
- epidermal thickness [4, 11]: decrease
- dermal CD3+ cells ([4]; treatment begins on day 3 of IMQ application, vs vehicle): diminished

Molecule: CCOC(=O)Oc1c(OC)cc(C(=O)O[C@@H]2C[C@@H]3CN4CCc5c([nH]c6cc(OC)ccc56)[C@H]4C[C@@H]3[C@H](C(=O)OC)[C@H]2OC)cc1OC [syrosingopine]
- cutaneous Type 17 immunity [4]: decrease
- Type 17 cytokines (Il17a, Il22, Il23a, Il1b, Tnfa) [4]: sufficient to limit
- cutaneous T cell numbers (dermal CD3+ cells) ([4]; vs vehicle): sufficient to limit
- epithelial (epidermal) thickness ([4]; vs vehicle): sufficient to limit
- cutaneous T cell numbers (dermal CD3+ cells) [4, 12]: diminished
- epithelial (epidermal) thickness [4, 12]: diminished
- epidermal thickness [4, 11]: decrease
- dermal CD3+ cells ([4]; treatment begins on day 3 of IMQ application, vs vehicle, listed as MCT1/MCT4 inhibitor): diminished

Molecule: O=CC[C@@H](O)[C@H](O)[C@H](O)CO [2DG, 2-Deoxy-D-glucose]
- lactate in culture supernatant, IMQ-treated vs control skin [6]: diminished
- lactate in culture supernatant, IMQ-treated vs control skin ([6]; listed as 2-DG): lost
